The values that follow are results of earlier work, collected in US20220193002A1, “PROCESS FOR THE PREPARATION OF BAKUCHIOL COMPOSITION SUBSTANTIALLY FREE OF FURANOCOUMARIN IMPURITIES” (K V Natural Ingredients PVT LTD, priority 2020, published 2022).

The subject of this data set is S. mutans. Conditions: cell growth inhibited in a concentration dependent manner; complete prevention of growth.

Consider `C=C[C@@](C)(/C=C/c1ccc(O)cc1)CCC=C(C)C` [bakuchiol, 4-[(1E,3S)-3-ethenyl-3,7-dimethylocta-1,6-dienyl]phenol], for which the “concentration at which the growth of S. mutans was completely prevented” value is 20 µg/mL.
